Experiments:
SD rats = assay: Oral Glucose Tolerance Test (OGTT) in SD rats: blood glucose excursion AUC and urine glucose excretion; assay type: in vivo, rat; details: mean ± SE; for response vs control in vivo at 1 mg/kg / response vs control in vivo at 10 mg/kg: Rattus norvegicus, 2 h, n = 8, read-out: 120-min Blood Glucose AUC vs Vehicle (%); for Urine Glucose Excretion (g/0-4 hr): n = 8
Experimental: Biological Example 2: In Vivo Assay
Oral Glucose Tolerance Test (OGTT) in SD Rats
Overnight fasted SD rats were allocated into vehicle or test compound treatment groups based on their body weights (n=8 in each group). The animals were orally dosed with vehicle or test compound at a volume of 10 ml/kg at 30-minute prior to OGTT. The animals then received an OGTT challenge with 2 g/kg (50% glucose solution at the volume of 4 ml/kg, orally). The animals were immediately transferred into metabolic cages after they were dosed with the glucose. Blood glucose levels were measured at 0 (pre-OGTT), 30, 60, and 120 minutes after OGTT using one-touch Glucometer. Blood glucose excursion AUC (area under the curve of blood glucose) was determined from the blood glucose levels measured at the timepoints.
Table 9 below, presents the measured efficacy of the test compound(s), expressed as the percentage (%) of blood glucose AUC vs that in vehicle group. The data is interpreted such that, the smaller the percentage of blood glucose AUC of compound vs vehicle, the greater the efficacy of the test compound. Urine volume and urine glucose concentrations (tested by using Olympus system with Genzyme diagnostics assay reagent) were measured to determine the urine glucose excretion (UGE) in 4-hr period after OGTT (0-4 hours).

human SGLT2 = target: T1, human SGLT2 (Homo sapiens, UniProt P31639); assay: SGLT2 in vitro assay: Na-dependent 14C-AMG uptake in CHO-K1 cells stably expressing human SGLT2; assay type: cell-based; details: CHO-K1 cells stably expressing human SGLT2, 14C-AMG uptake; for inhibition at 0.3 µM: read-out: SGLT2 % Inh @ 0.3 μM; for IC50: compounds of formula (I) where R0 is fluoro
T1 construct: expressed in transfected cells
T1 sequence (P31639 1-672): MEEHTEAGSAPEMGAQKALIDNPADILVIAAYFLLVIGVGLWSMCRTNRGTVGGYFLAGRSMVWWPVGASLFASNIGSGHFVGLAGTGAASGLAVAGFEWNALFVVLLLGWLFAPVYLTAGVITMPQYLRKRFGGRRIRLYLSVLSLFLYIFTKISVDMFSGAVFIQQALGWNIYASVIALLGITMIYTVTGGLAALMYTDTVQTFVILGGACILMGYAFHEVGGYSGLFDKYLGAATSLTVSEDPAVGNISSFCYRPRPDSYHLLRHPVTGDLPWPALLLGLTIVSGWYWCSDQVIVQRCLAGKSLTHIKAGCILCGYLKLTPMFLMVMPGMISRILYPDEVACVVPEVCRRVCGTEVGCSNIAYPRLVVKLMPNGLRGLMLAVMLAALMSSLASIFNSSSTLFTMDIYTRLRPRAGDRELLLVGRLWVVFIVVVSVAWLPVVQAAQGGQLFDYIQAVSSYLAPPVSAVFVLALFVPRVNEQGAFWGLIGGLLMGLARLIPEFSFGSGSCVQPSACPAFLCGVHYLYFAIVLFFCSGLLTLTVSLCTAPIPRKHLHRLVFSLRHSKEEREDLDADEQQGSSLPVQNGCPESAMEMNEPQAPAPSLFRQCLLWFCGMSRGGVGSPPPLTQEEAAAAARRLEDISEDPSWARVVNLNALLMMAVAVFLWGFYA
Summary of the method: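 CHO-K1 cells stably expressing human SGLT1 or SGLT2, induced with 10 mM Na-butyrate for 24 h. Compounds (0.001–10 μM) in Na+-containing HEPES/Tris buffer pH 7.4 were applied for 10 min, then 14C-AMG ([…]) for 2 h at 37°C; Na-dependent uptake read by scintillation; %-inhibition or IC50.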

inhibition at 0.3 µM (human SGLT2)	IC50 (human SGLT2)	Compound	response vs control in vivo at 1 mg/kg (SD rats; oral dose 1 mg/kg)	response vs control in vivo at 10 mg/kg (SD rats; oral dose 10 mg/kg)	Urine Glucose Excretion (g/0-4 hr) (SD rats; oral dose 1 mg/kg)	Urine Glucose Excretion (g/0-4 hr) (SD rats; oral dose 10 mg/kg)
87.4%	1.1 nM	COc1ccc(Cc2cc([C@@H]3O[C@H](CO)C(F)(F)[C@H](O)[C@H]3O)c(O)cc2Cl)cc1 [Compound 81, (2S,3R,4R,6R)-2-(4-chloro-2-hydroxy-5-(4-methoxybenzyl)phenyl)-5,5-difluoro-6-(hydroxymethyl)-tetrahydro-2H-pyran-3,4-diol]	77.5 ± 2.4%	41 ± 2.7%	0.099 ± 0.037 g/0-4 hr	0.276 ± 0.032 g/0-4 hr
90.1%	1.3 nM	COc1cc(O)c([C@@H]2O[C@H](CO)C(F)(F)[C@H](O)[C@H]2O)cc1Cc1ccc2c(c1)CCCO2 [Compound 44, (2S,3R,4R,6R)-2-(5-(chroman-6-ylmethyl)-2-hydroxy-4-methoxyphenyl)-5,5-difluoro-6-(hydroxymethyl)tetrahydro-2H-pyran-3,4-diol]	61.7 ± 2.1%	39.3 ± 1.7%	0.002 ± 0.001 g/0-4 hr	0.2 ± 0.02 g/0-4 hr
